How the values were obtained:
CDK14 = tested on: CDK14; design: method as in AstraZeneca data repository; settings: median log of IC50/EC50/Ki/Kd annotations, highest value; ref AstraZeneca data repository; cited from earlier work
CDK12 = tested on: CDK12; design: method as in AstraZeneca data repository; settings: median log of IC50/EC50/Ki/Kd annotations, highest value; ref AstraZeneca data repository; cited from earlier work
CDK9 = tested on: CDK9; design: method as in AstraZeneca data repository; settings: median log of IC50/EC50/Ki/Kd annotations, highest value; ref AstraZeneca data repository; cited from earlier work
CDK4 = tested on: CDK4; design: method as in AstraZeneca data repository; settings: median log of IC50/EC50/Ki/Kd annotations, highest value; ref AstraZeneca data repository; cited from earlier work
CDK5 = tested on: CDK5; design: method as in AstraZeneca data repository; settings: median log of IC50/EC50/Ki/Kd annotations, highest value; ref AstraZeneca data repository; cited from earlier work
[1] = tested on: lipid droplet accumulation in TG/FA-treated hiPSC-Hep; test: hiPSC-Hep ER-stress (TG/FA) induced lipid droplet accumulation high-content assay, integrated spot signal (BODIPY 493/503); format: cell-based, human; settings: Homo sapiens; for IC50: 10-point dose-response, pre-treatment then TG/FA 18 h, read-out: IC50, inhibition of lipid accumulation (integrated spot signal); for EC50: Figure S5 dose-response, read-out: EC50, inhibition of lipid droplet accumulation (black line: ISS)
Method: Cryopreserved hiPSC-derived hepatocytes (iCell Hepatocytes 2.0; Cellular Dynamics International Madison, WI) plated at a density of 36 K/well in 384-well on collagen I coated Corning Biocoat 384-well plates (BD Biosciences, 101306), were cultured to promote hepatic differentiation and maturation into hepatic-like cells as previously described. Hepatocytes were plated according to the manufacturer’s protocol in a volume of 50 µL/well using BioTek^TM Microflo^TM select dispenser (#7170011, BioTek Instruments) for high-throughput and high-content analysis assay (HT/HCA) drug discovery. After plating cells were cultured according to vendor specifications in a cell culture incubator at 37 °C, 5% CO2 for 3–4 h. Then, 40 µL spent medium was aspirated using multi-channel automated pipette handling system (Integra ViaFlo 96/384) and replaced with 40 µL (80% exchange) of fresh plating medium. Approximately 24 h post-plating 80% of medium was replaced every day thereafter. At day 5 of differentiation, 40 µL/well spent medium was replaced with maintenance medium (MM) consisting of William’s E medium (Thermo Fisher Scientific) supplemented with 0.1 µM dexamethasone and hepatocyte maintenance supplement pack (Thermo Fisher Scientific) for an additional 2–3 days before HCA. The overview of automated HT system for hiPSC-derived hepatocytes differentiation, staining and image analysis for phenotypic screening is depicted in Figure S2. Primary screening hit confirmation and dose response studies were performed on different batches of hiPSC-derived hepatocytes.
To induce hepatic triglycerides (TAG) accumulation, before staining, cells were treated with 20 μL of 2× FA mixture, consisting of different proportions of oleic acid (OA-BSA, 25 µM, Sigma, #O3008), palmitic acid (PA-BSA, 200 µM, Agilent Technologies, #102720100) and thapsigargin (TG, 1 µM, Abcam, #120286) with a total volume of 40 μL/well. The TG/FA mixture was dispensed with BioTek^TM Microflo^TM select dispenser (#7170011, BioTek Instruments) and incubated for 18 h. Next, to label TAG accumulation stored into cytoplasmic lipid droplets, upon treatment, living cells were washed two times with warm Dulbecco’s Phosphate-Buffered Saline 1X (PBS, Corning, #21-031CV) with a handheld 384-channel electronic pipette device and then incubated for 15 min with a lipophilic dye, BODIPY 493/503 (8 ug/mL Life technologies, #D3922-green), in PBS at 37 °C. BODIPY (493/503) has become the standard dye utilized by scientists to study lipid droplets in live cells. After three washes with PBS cells were fixed with 4% paraformaldehyde methanol-free (PFA, Electron Microscopy Science, #15710) in PBS for 15 min at room temperature (RT). Cell health was monitored by Hoechst 33342 (10 ug/mL, Molecular Probe, #H21492) staining in PBS for nuclear count. After TAG staining the 384-assay plates were loaded in an automated confocal microscope with Opera High Content Imaging System (PerkinElmer, Waltham, MA, USA). Dyes were excited and images were captured on the Hoechst 3342 and Alexa Fluor 488 channels and signals were collected with a long pass filter 410 and 505 nm, for nuclei and TAG, respectively, at objective 20× air objective for HCA. To capture enough cells (>600) for the analysis, eight fields per well were imaged. Hoechst 33342 fluorescence was used to identify the nuclear region and cell counts. To assess intracellular fat deposits, BODIPY 493/503 fluorescence intensity was measured inside the cytoplasm region.
For the HCA screen, compounds tested for their inhibitory effects, were used as single dose at a 10 μM final concentration of compound in DMSO in each well (0.1% DMSO) in 20 μL of maintenance medium. Prior to compound addition, 30 µL/well of medium was removed from hiPSC-Hep cells screening plates with ViaFlo ([…]). Pre-spotted 80 nL of 10 mM compound were diluted to 20 μM (0.2% DMSO) in 40 μL of maintenance medium in the source 384-well plate. […]

CDK5R1 = tested on: CDK5R1; design: method as in AstraZeneca data repository; settings: median log of IC50/EC50/Ki/Kd annotations, highest value; ref AstraZeneca data repository; cited from earlier work
CDK16 = tested on: CDK16; design: method as in AstraZeneca data repository; settings: median log of IC50/EC50/Ki/Kd annotations, highest value; ref AstraZeneca data repository; cited from earlier work
CDK7 = tested on: CDK7; design: method as in AstraZeneca data repository; settings: median log of IC50/EC50/Ki/Kd annotations, highest value; ref AstraZeneca data repository; cited from earlier work
CDK8 = tested on: CDK8; design: method as in AstraZeneca data repository; settings: median log of IC50/EC50/Ki/Kd annotations, highest value; ref AstraZeneca data repository; cited from earlier work

Structure (SMILES) | pXC50 CDK14 (CDK14) | pXC50 CDK12 (CDK12) | pXC50 CDK9 (CDK9) | pXC50 CDK4 (CDK4) | pXC50 CDK5 (CDK5) | IC50 [1] | EC50 [1] | pXC50 CDK5R1 (CDK5R1) | pXC50 CDK16 (CDK16) | pXC50 CDK7 (CDK7) | pXC50 CDK8 (CDK8)
CNC(=O)c1nn(C)c2c1C(C)(C)Cc1cnc(Nc3ccc(N4CCN(C)CC4)cc3)nc1-2 [C16, Milciclib] | 6.13 | 5.34 | 5.60 | 7.16 | 6.58 | 4600 nM | 4600 nM | 6.58 | 7.10 | 7.51 | –
Cc1ncc(-c2nc(Nc3ccc(N4CCN(C(=O)CO)CC4)cc3)ncc2F)n1C(C)C [C3] | – | – | – | 7.33 | – | 320 nM | 320 nM | – | – | – | 5.60
